From patent publication US20030187048A1, “Method for inhibiting skin lesion formation using histamine as the active ingredient” (priority 1991, published 2003)
Where “and” joins values, the source holds several entries; their conditions need not be identical. Equal entries are not always repeated. Where two headings read alike, the source gives them in different places.

Tests used:
herpes genitalis lesions = settings: for Burning score / Local pain score: scale 0 to 5; for Reduction in Complete Healing Time: vs usual episode
Method: Treatment consisted of topical application three times a day for a period of five days. […] The percent reduction in complete healing time as compared to a usual episode was evaluated grouping the two patients who received active gel concentrations together and comparing to the two patients receiving placebo gel.
Each patient was contacted daily for 5 days for his or her estimate of the symptomatic relief of 6 common symptoms associated with genital herpes as well as the patient's interpretation of total healing of the episode. In an attempt to quantify responses, patients were asked to rate each symptom on a scale of 0 to 5 with 0 representing no evidence of the symptom and 5 representing the worst or most prominent evidence of the symptom ever for the patient. Subject compliance with the study regimen and the use of other medications was also assessed.

[1] = test system: Giant Papillary Conjunctivitis
Method: (§1) The composition of the present invention includes initial preparation of a gel base by adding 0.8% CARBOPOL 940, which is a vinyl polymer, to distilled water. This mixture was allowed to stand for several hours until the polymer was wetted and a gel was formed. This mixture then was blended by means of a ordinary high speed mixer, such as a Lightning Labmaster II until a homogenous mixture is formed. At this point, a neutralizing and emulsifying agent such as an amino alcohol was added, forming an emulsion. […] This composition then was applied topically to various types of lesions, as subsequently described. […] Propylparaben or methylparaben may be used as a preservative. For “unidose” dispensers containing only two to three drops, no preservatives are used, as it is known that preservatives in ophthalmic solutions frequently cause undesirable side effects. The term semi-synthetic water soluble polymer as used herein includes hydroxy methylcellulose or carboxy methylcellulose. Carbopol is widely available in different viscosities.
(§2) Treatment consisted of topical ophthalmic application of both ophthalmic solution concentrations to their randomly assigned patients 2 times a day for 5 days. […] Each patient was clinically evaluated at 48 hours and 120 hours following the initiation of treatment for 2 parameters of tissue damage associated with Giant Papillary Conjunctivitis. In addition, each patient was asked to evaluate subjectively 2 symptoms associated with Giant Papillary conjunctivitis 48 hours and 120 hours after treatment initiation. The percent reduction from the initial presentation of each of the parameters of tissue damage and the initial presentation for each additional symptom evaluated was calculated from 48 and 120 hour post treatment initiation data.
(§3) Patients were randomly assigned to one of two active levels being evaluated.
(§4) Clinical evaluation was performed at 48 hours and 120 hours post treatment initiation. Each patient was asked to subjectively evaluate 2 additional symptoms associated with Giant Papillary Conjunctivitis by rating each symptom on a scale of 0 to 5 with 0 representing no evidence of symptom and 5 representing the greatest evidence of the symptom ever by the patient. Clinical evaluation of tissue damage parameters was also done using the same scale of 0 to 5. Patient compliance with the treatment regimen and the use of other medications was also evaluated.

Allergic Conjunctivitis = test system: Allergic Conjunctivitis
Method: as §1
as §2, with “with Allergic” for “with Giant Papillary”, “subjectively 3” for “subjectively 2”, “with Allergic Conjunctivitis” for “with Giant Papillary conjunctivitis”
as §3
as §4, with “evaluate 3” for “evaluate 2”, “with Allergic” for “with Giant Papillary”, “patient. clinical” for “patient. Clinical”, “5.” for “5. Patient compliance with the treatment regimen and the use of other medications was also evaluated.”
Patient compliance with the treatment regimen and the use of other medications was also evaluated.

[2] = 0.0067% ophth soln, 48 hr, per patient
[3] = 0.0067% ophth soln, 120 hr, per patient
[4] = 0.0067% ophth soln, scale 0 to 5, per patient
[5] = 0.0067% ophth soln, 48 hrs, per patient
[6] = 0.0067% ophth soln, 120 hrs, per patient

NCCc1c[nH]cn1 [IEP, 1H-imidazole-4-ethanamine,phosphate]
Burning score (herpes genitalis lesions; 0.0275% IEP gel, day 1): 3 | Local pain score (herpes genitalis lesions; 0.0275% IEP gel, day 1 of treatment): 3 | Burning score (herpes genitalis lesions; 0.0275% IEP gel, day 2): 0 | Local pain score (herpes genitalis lesions; 0.0275% IEP gel, day 2): 0 | Burning score (herpes genitalis lesions; 0.0275% IEP gel, day 3): 0 | Local pain score (herpes genitalis lesions; 0.0275% IEP gel, day 3): 0 | Burning score (herpes genitalis lesions; 0.0275% IEP gel, day 4): 0 | Local pain score (herpes genitalis lesions; 0.0275% IEP gel, day 4): 0 | Burning score (herpes genitalis lesions; 0.0275% IEP gel, day 5): 0 | Local pain score (herpes genitalis lesions; 0.0275% IEP gel, day 5): 0 | Healing Time (herpes genitalis lesions; 0.0275% IEP gel, patient 603, usual healing time 7 days): 1 days | Reduction in Complete Healing Time (herpes genitalis lesions; 0.0275% IEP gel): 85% | Burning score (herpes genitalis lesions; […] IEP gel, day 1): 3 | Local pain score (herpes genitalis lesions; […] IEP gel, day 1): 4 | Burning score (herpes genitalis lesions; […] IEP gel, day 2): 1 | Local pain score (herpes genitalis lesions; […] IEP gel, day 2): 2 | Burning score (herpes genitalis lesions; […] IEP gel, day 3): 0 | Local pain score (herpes genitalis lesions; […] IEP gel, day 3): 2 | Burning score (herpes genitalis lesions; […] IEP gel, day 4): 0 | Local pain score (herpes genitalis lesions; […] IEP gel, day 4): 0 | Burning score (herpes genitalis lesions; […] IEP gel, day 5): 0 | Local pain score (herpes genitalis lesions; […] IEP gel, day 5): 0 | Healing Time (herpes genitalis lesions; […] IEP gel, patient 604, usual healing time 7 days): 3.5 days | Reduction in Complete Healing Time (herpes genitalis lesions; […] IEP gel): 50% | Difference in percent reduction in complete healing time vs placebo (herpes genitalis lesions; combined […] and 0.0275% groups, p<0.05): significant | Untoward reactions (herpes genitalis lesions; topical gel […], 0.0275%, three times a day for five days): no untoward reactions | Exudation, Percent Reduction from Pre-Treatment Value [1, 2]: 50.0% and 75.0% and 100.0% | Itch/Burn, Percent Reduction from Pre-Treatment Value [1, 2]: 75.0% and 80.0% and 100.0% | Redness, Percent Reduction from Pre-Treatment Value [1, 2]: 50.0% and 66.67% and 100.0% | Contact Lens Tolerance, Percent Reduction from Pre-Treatment Value [1, 3]: 100.0% | Exudation, Percent Reduction from Pre-Treatment Value [1, 3]: 100.0% | Itch/Burn, Percent Reduction from Pre-Treatment Value [1, 3]: 100.0% | Redness, Percent Reduction from Pre-Treatment Value [1, 3]: 100.0% | Conjunctival Injection (redness), Value at 120 Hours [1, 4]: 0 | Contact Lens Tolerance, Value at 120 hours [1, 4]: 0 | Exudation, Value at 120 Hours [1, 4]: 0 | Itching and Burning, Value at 120 hours [1, 4]: 0 | Difference in percent reduction of tissue damage parameters and symptoms vs placebo ophthalmic solution ([1]; 0.0067% ophthalmic solution, except contact lens tolerance at 48 hours): either significant (p<0.05) or highly significant (p<.O1) | Decrease in size of the papilla ([1]; end of the 5 day treatment period, any of the patients): a significant decrease in size of the papilla was not noted | Untoward effects ([1]; in vivo): no untoward effects | Edema, Percent Reduction from Pre-Treatment Value (Allergic Conjunctivitis; [5]): 66.67% and 50.0% and 100.0% | Itching, Percent Reduction from Pre-Treatment Value (Allergic Conjunctivitis; [5]): 100.0% (2×) and 50.0% | Level of Discomfort, Percent Reduction from Pre-Treatment Value (Allergic Conjunctivitis; [5]): 66.67% and 75.0% and 100.0% | Redness, Percent Reduction from Pre-Treatment Value (Allergic Conjunctivitis; [5]): 66.67% (2×) and 75.0% | Tearing, Percent Reduction from Pre-Treatment Value (Allergic Conjunctivitis; [5]): 100.0% and 50.0% | Edema, Percent Reduction from Pre-Treatment Value (Allergic Conjunctivitis; [6]): 100.0% | Itching, Percent Reduction from Pre-Treatment Value (Allergic Conjunctivitis; [6]): 100.0% | Level of Discomfort, Percent Reduction from Pre-Treatment Value (Allergic Conjunctivitis; [6]): 66.7% and 100.0% (2×) | Redness, Percent Reduction from Pre-Treatment Value (Allergic Conjunctivitis; [6]): 100.0% and 75.0% and 66.67% | Tearing, Percent Reduction from Pre-Treatment Value (Allergic Conjunctivitis; [6]): 100.0% (2×) and 75.0% | Conjunctival Injection or Redness, Value at 48 Hours (Allergic Conjunctivitis; [4]): 1 (2×) and 3 | Edema, Value at 120 Hours (Allergic Conjunctivitis; [4]): 0 | Itching, Value at 120 Hours (Allergic Conjunctivitis; [4]): 0 | Difference in percent reduction of tissue damage parameters and symptoms vs placebo ophthalmic solution (Allergic Conjunctivitis; 0.0067% ophthalmic solution): either significant (p<0.05) or highly significant (p<.O1) | Untoward effects (Allergic Conjunctivitis; in vivo): no untoward effects
